From PMC9127750, “Structure-based design of CDC42 effector interaction inhibitors for the treatment of cancer” (Cell reports, 2022)
Where “and” joins values, the source holds several entries; their conditions need not be identical. Equal values may be shown once.

System: WM3248 melanoma cells, 486 antibodies
Experiment: Reverse phase protein arrays (RPPA)
Format: cell-based, Human
From the text: Pellets were snap frozen in liquid nitrogen and shipped to MD Anderson Cancer Center core RPPA facility for RPPA analysis (Table S5). Three biological replicates for each sample were generated.
Nomenclatures on the RPPA heatmaps: name_of_antibody.species_of_antibody.status_of_antibody. V - antibody validated; C - validation of antibody in progress; Q - antibody nonspecific; E – under evaluation; antibodies raised in M - mouse, G - goat, R - rabbit, or T - rat.

[1] = level 5 normalized to 0, mean of 3
[2] = level 5 normalized to 0, single replicates

**Q.** Which results are given for CN(C)c1cccc(Nc2cc(-c3ccccc3)nc(C3CCNCC3)n2)c1 [ARN22089, N1,N1-dimethyl-N3-(6-phenyl-2-(piperidin-4-yl)pyrimidin-4-yl)benzene-1,3-diamine]?
**A.** S6 phosphorylation at serine 235/236 and 240/244 (RPPA) (WM3248, 6 h, 10 and 20 μM): inhibit S6 phosphorylation; number of proteins with significantly influenced phosphorylation (RPPA) (WM3248, 6 h, 10 and/or 20 μM): 10; number of proteins with significantly influenced abundance (RPPA) (WM3248, 6 h, 10 and/or 20 μM, 486 antibodies): 38; TSC1.R.C Norm_5 Average [1]: 1.102; TTF1.R.V Norm_5 Average [1]: 1.049; TUFM.R.V Norm_5 Average [1]: 0.868; Tuberin_pT1462.R.V Norm_5 Average [1]: 0.977; Twist.M.C Norm_5 Average [1]: 0.950; Tyro3.R.V Norm_5 Average [1]: 1.005; U.Histone.H2B.R.C Norm_5 Average [1]: 1.142; UBAC1.R.V Norm_5 Average [1]: 0.993; UBQLN4.M.C Norm_5 Average [1]: 1.016; ULK1_pS757.R.C Norm_5 Average [1]: 1.079; UQCRC2.M.C Norm_5 Average [1]: 0.979; UVRAG.R.C Norm_5 Average [1]: 1.020; VASP.R.V Norm_5 Average [1]: 0.994; VAV1.R.C Norm_5 Average [1]: 1.019; VEGFR.2.R.V Norm_5 Average [1]: 1.081; VEGFR.2_pY1175.R.C Norm_5 Average [1]: 0.910; VHL.R.C Norm_5 Average [1]: 0.932; Vinculin.M.V Norm_5 Average [1]: 1.019; WIPI1.R.C Norm_5 Average [1]: 1.058; WIPI2.R.C Norm_5 Average [1]: 1.061; WTAP.R.V Norm_5 Average [1]: 0.959; Wee1.R.C Norm_5 Average [1]: 1.054; Wee1_pS642.R.C Norm_5 Average [1]: 0.993; XBP.1.G.C Norm_5 Average [1]: 0.977; XIAP.R.C Norm_5 Average [1]: 1.035; XPA.M.V Norm_5 Average [1]: 0.929; XPF.R.C Norm_5 Average [1]: 0.943; XRCC1.R.C Norm_5 Average [1]: 0.946; YAP.R.C Norm_5 Average [1]: 0.953; YAP_pS127.R.V Norm_5 Average [1]: 0.906; YB1_pS102.R.V Norm_5 Average [1]: 0.961; YES1.R.V Norm_5 Average [1]: 0.962; YTHDF2.R.V Norm_5 Average [1]: 1.076; YTHDF3.R.C Norm_5 Average [1]: 0.987; ZAP.70.R.V Norm_5 Average [1]: 0.952; ZEB1.R.V Norm_5 Average [1]: 0.892; TSC1.R.C Norm_5_1 to Norm_5_3 [2]: 1.060 and 1.024 and 1.221; TTF1.R.V Norm_5_1 to Norm_5_3 [2]: 1.035 and 1.145 and 0.966; TUFM.R.V Norm_5_1 to Norm_5_3 [2]: 0.845 and 0.669; Tuberin.R.V Norm_5_1 to Norm_5_3 [2]: 1.052 and 1.301; Tuberin_pT1462.R.V Norm_5_1 to Norm_5_3 [2]: 0.994 and 0.956 and 0.983; Twist.M.C Norm_5_1 to Norm_5_3 [2]: 0.898 and 0.964 and 0.990; Tyro3.R.V Norm_5_1 to Norm_5_3 [2]: 1.008 and 1.152 and 0.855; U.Histone.H2B.R.C Norm_5_1 to Norm_5_3 [2]: 1.497 and 1.118 and 0.811; UBAC1.R.V Norm_5_1 to Norm_5_3 [2]: 0.966 and 1.139 and 0.875; UBQLN4.M.C Norm_5_1 to Norm_5_3 [2]: 0.962 and 1.147; UGT1A.M.V Norm_5_1 to Norm_5_3 [2]: 0.962 and 0.965 and 0.979; ULK1_pS757.R.C Norm_5_1 to Norm_5_3 [2]: 0.993 and 1.063; UQCRC2.M.C Norm_5_1 to Norm_5_3 [2]: 0.997 and 1.139 and 0.800; UVRAG.R.C Norm_5_1 to Norm_5_3 [2]: 1.096 and 0.960 and 1.005; VASP.R.V Norm_5_1 to Norm_5_3 [2]: 1.053 and 0.992; VAV1.R.C Norm_5_1 to Norm_5_3 [2]: 1.027 and 0.961; VEGFR.2.R.V Norm_5_1 to Norm_5_3 [2]: 0.985 and 1.166; VEGFR.2_pY1175.R.C Norm_5_1 to Norm_5_3 [2]: 0.849 and 0.870 and 1.011; VHL.EPPK1.M.C Norm_5_1 to Norm_5_3 [2]: 0.542 and 1.028 and 0.909; VHL.R.C Norm_5_1 to Norm_5_3 [2]: 0.928 and 0.903 and 0.966; Vinculin.M.V Norm_5_1 to Norm_5_3 [2]: 0.942 and 1.027; WIPI1.R.C Norm_5_1 to Norm_5_3 [2]: 1.134 and 1.302 and 0.738; WIPI2.R.C Norm_5_1 to Norm_5_3 [2]: 1.104 and 0.916 and 1.163; WTAP.R.V Norm_5_1 to Norm_5_3 [2]: 0.932 and 0.904; Wee1.R.C Norm_5_1 to Norm_5_3 [2]: 0.867 and 1.101 and 1.195; Wee1_pS642.R.C Norm_5_1 to Norm_5_3 [2]: 0.917 and 0.940 and 1.121; XBP.1.G.C Norm_5_1 to Norm_5_3 [2]: 0.957 and 1.060 and 0.914; XIAP.R.C Norm_5_1 to Norm_5_3 [2]: 1.060 and 0.982 and 1.062; XPA.M.V Norm_5_1 to Norm_5_3 [2]: 0.895 and 0.876 and 1.017; XPF.R.C Norm_5_1 to Norm_5_3 [2]: 0.932 and 0.922 and 0.975; XRCC1.R.C Norm_5_1 to Norm_5_3 [2]: 0.894 and 1.030 and 0.916; YAP.R.C Norm_5_1 to Norm_5_3 [2]: 0.937 and 0.945 and 0.977; YAP_pS127.R.V Norm_5_1 to Norm_5_3 [2]: 0.985 and 0.903 and 0.830; YB1_pS102.R.V Norm_5_1 to Norm_5_3 [2]: 0.906; YES1.R.V Norm_5_1 to Norm_5_3 [2]: 0.963 and 1.014 and 0.910; YTHDF2.R.V Norm_5_1 to Norm_5_3 [2]: 1.138 and 1.217 and 0.872; YTHDF3.R.C Norm_5_1 to Norm_5_3 [2]: 1.049 and 0.875; ZAP.70.R.V Norm_5_1 to Norm_5_3 [2]: 0.889 and 1.054; ZEB1.R.V Norm_5_1 to Norm_5_3 [2]: 0.816 and 0.893 and 0.967; HLA.DQA1.R.V Norm_5 Average (level 5 vs 0): 0.908; HLA.DR.DP.DQ.DX.R.C Norm_5 Average (level 5 vs 0): 0.994; HSP27.M.C Norm_5 Average (level 5 vs 0): 0.932; HSP27_pS82.R.V Norm_5 Average (level 5 vs 0): 1.025; HSP60.R.V Norm_5 Average (level 5 vs 0): 1.006; HSP70.R.C Norm_5 Average (level 5 vs 0): 1.035; Hexokinase.I.R.C Norm_5 Average (level 5 vs 0): 1.032; Hexokinase.II.R.V Norm_5 Average (level 5 vs 0): 1.130; Hif.1αR.C Norm_5 Average (level 5 vs 0): 1.202; Histone.H3.R.V Norm_5 Average (level 5 vs 0): 1.065; Histone.H3_pS10.R.V Norm_5 Average (level 5 vs 0): 0.786; IDO.R.C Norm_5 Average (level 5 vs 0): 1.015; IGF1R_pY1135_Y1136.R.V Norm_5 Average (level 5 vs 0): 1.003; IGFBP2.R.V Norm_5 Average (level 5 vs 0): 1.029; IGFBP3.M.V Norm_5 Average (level 5 vs 0): 0.953; IGFRb.R.C Norm_5 Average (level 5 vs 0): 1.085; IL.6.R.C Norm_5 Average (level 5 vs 0): 1.015; INPP4b.R.C Norm_5 Average (level 5 vs 0): 1.023; IR.b.R.C Norm_5 Average (level 5 vs 0): 1.051; IRF.1.R.V Norm_5 Average (level 5 vs 0): 0.995; IRF.3.R.V Norm_5 Average (level 5 vs 0): 0.937; IRS1.R.V Norm_5 Average (level 5 vs 0): 1.023; IRS2.R.C Norm_5 Average (level 5 vs 0): 0.992; JNK2.R.V Norm_5 Average (level 5 vs 0): 1.065; JNK_pT183_Y185.R.C Norm_5 Average (level 5 vs 0): 0.992; Jagged1.R.V Norm_5 Average (level 5 vs 0): 0.984; Jak2.R.V Norm_5 Average (level 5 vs 0): 1.003; KEAP1.R.V Norm_5 Average (level 5 vs 0): 0.955; LAD1.R.V Norm_5 Average (level 5 vs 0): 0.963; LC3A.B.R.C Norm_5 Average (level 5 vs 0): 1.012; LCN2.R.V Norm_5 Average (level 5 vs 0): 1.298; LDHA.R.C Norm_5 Average (level 5 vs 0): 1.102; LRP6_pS1490.R.V Norm_5 Average (level 5 vs 0): 1.046; Lasu1.R.V Norm_5 Average (level 5 vs 0): 0.972; Lck.R.V Norm_5 Average (level 5 vs 0): 1.010; Lyn.R.V Norm_5 Average (level 5 vs 0): 0.844; MAPK_pT202_Y204.R.C Norm_5 Average (level 5 vs 0): 0.869; MCT4.R.V Norm_5 Average (level 5 vs 0): 1.048; MDM2_pS166.R.V Norm_5 Average (level 5 vs 0): 1.023; MEK1.R.V Norm_5 Average (level 5 vs 0): 1.023; MEK1_pS217_S221.R.V Norm_5 Average (level 5 vs 0): 0.982; MERIT40.R.C Norm_5 Average (level 5 vs 0): 0.989; METTL3.R.V Norm_5 Average (level 5 vs 0): 0.986; MIF.R.C Norm_5 Average (level 5 vs 0): 0.948; MIG6.R.V Norm_5 Average (level 5 vs 0): 0.939; MITF.R.V Norm_5 Average (level 5 vs 0): 1.020; MLH1.M.V Norm_5 Average (level 5 vs 0): 0.926; MLKL.R.V Norm_5 Average (level 5 vs 0): 0.945; MMP2.R.V Norm_5 Average (level 5 vs 0): 0.946; MR1.M.C Norm_5 Average (level 5 vs 0): 0.994; MRAP.R.C Norm_5 Average (level 5 vs 0): 1.051; MSH2.R.C Norm_5 Average (level 5 vs 0): 0.954; MSH6.R.C Norm_5 Average (level 5 vs 0): 1.056; MSI2.R.C Norm_5 Average (level 5 vs 0): 1.081; MTCO1.M.V Norm_5 Average (level 5 vs 0): 1.081; MTSS1.M.C Norm_5 Average (level 5 vs 0): 0.950; Mcl.1.R.V Norm_5 Average (level 5 vs 0): 0.960; MelanA.R.C Norm_5 Average (level 5 vs 0): 1.007; Melanoma.gp100.R.C Norm_5 Average (level 5 vs 0): 1.060; Merlin.R.C Norm_5 Average (level 5 vs 0): 1.018; Midkine.R.V Norm_5 Average (level 5 vs 0): 0.932; Mitofusin.1.R.V Norm_5 Average (level 5 vs 0): 1.025; Mnk1.R.V Norm_5 Average (level 5 vs 0): 1.012; mTOR.R.V Norm_5 Average (level 5 vs 0): 1.033; mTOR_pS2448.R.C Norm_5 Average (level 5 vs 0): 1.080; HLA.DQA1.R.V Norm_5 (level 5 vs 0, replicates): 0.839 and 1.026 and 0.858; HLA.DR.DP.DQ.DX.R.C Norm_5 (level 5 vs 0, replicates): 0.915 and 1.122 and 0.946; HMHA1.R.V Norm_5 (level 5 vs 0, replicates): 1.034 and 1.050 and 1.124; HNRNPK.R.V Norm_5 (level 5 vs 0, replicates): 0.924 and 0.922 and 0.995; HSP27.M.C Norm_5 (level 5 vs 0, replicates): 0.955 and 1.006 and 0.835; HSP27_pS82.R.V Norm_5 (level 5 vs 0, replicates): 0.966 and 0.991 and 1.118; HSP60.R.V Norm_5 (level 5 vs 0, replicates): 1.007 and 0.973; HSP70.R.C Norm_5 (level 5 vs 0, replicates): 1.007 and 1.047 and 1.051; Hexokinase.I.R.C Norm_5 (level 5 vs 0, replicates): 1.009 and 1.149; Hexokinase.II.R.V Norm_5 (level 5 vs 0, replicates): 1.156 and 1.123 and 1.110; Hif.1αR.C Norm_5 (level 5 vs 0, replicates): 1.356 and 1.081 and 1.170; Histone.H3.R.V Norm_5 (level 5 vs 0, replicates): 1.165 and 1.542 and 0.488; Histone.H3_pS10.R.V Norm_5 (level 5 vs 0, replicates): 0.733 and 1.032 and 0.592; IDO.R.C Norm_5 (level 5 vs 0, replicates): 1.121 and 0.959 and 0.966; IGF1R_pY1135_Y1136.R.V Norm_5 (level 5 vs 0, replicates): 0.933 and 1.035; IGFBP2.R.V Norm_5 (level 5 vs 0, replicates): 0.940 and 1.033 and 1.113; IGFBP3.M.V Norm_5 (level 5 vs 0, replicates): 0.833 and 0.934; IGFRb.R.C Norm_5 (level 5 vs 0, replicates): 1.063 and 1.065 and 1.126; IL.6.R.C Norm_5 (level 5 vs 0, replicates): 1.051 and 0.961 and 1.033; IMP3.R.C Norm_5 (level 5 vs 0, replicates): 0.861 and 0.973 and 1.018
